Among the data in ChEMBL document CHEMBL4376829, “Discovery and biological evaluation of vinylsulfonamide derivatives as highly potent, covalent TEAD autopalmitoylation inhibitors” (Eur J Med Chem, 2019) are inhibition values, retold here.

The structures appear in SMILES notation. Activity calls are given as the source filed them. The calls are words filed in the database; no cut-off is given here.

What is called inhibition is the drop in the measured response relative to a control, in per cent.

Assay [1] concerns the target Death-associated protein kinase 1 (Homo sapiens) (UniProt P53355). As to the kind of experiment: Inhibition of recombinant human DAPK1 (1 to 296 residues) at 10 uM using KKLNRTLSFAEPG as substrate after 40 mins by in presence of [gamma33P]ATP by scintillation counting method relative to control.
The target of assay [2] is Tyrosine-protein kinase HCK (Homo sapiens) (UniProt P08631). The assay can be described thus: Inhibition of recombinant human Hck activated (230 to 497 residues) at 10 uM using GGMEDIYFEFMGGKKK as substrate after 40 mins in presence of [gamma33P]ATP by scintillation counting method relative to control.
Assay [3] has as its target Serine/threonine-protein kinase Nek2 (Homo sapiens) (UniProt P51955). The assay can be described thus: Inhibition of recombinant human full length NEK2 at 10 uM using myelin basic protein as substrate incubated for 40 mins in presence of [gamma-33P]-ATP by scintillation counting method relative to control.
In assay [4] the target is Transcriptional enhancer factor TEF-3 (Homo sapiens, UniProt Q15561). As to the kind of experiment: Inhibition of N-terminal His6-tagged human TEAD4-YBD (217 to 434 residues) expressed in Escherichia coli C43 (DE3) cells at 50 to 1000 nM preincubated for 2 hrs followed by palmitoyl alkyne-coenzyme A addition and measured after 30 mins in presence of BSA by immunoblot analysis. For orientation: Immunoblotting shows a protein as a band on a membrane.

For assay [5], the target named is Phosphorylase b kinase gamma catalytic chain, skeletal muscle/heart isoform (Homo sapiens) (UniProt Q16816). As to the kind of experiment: Inhibition of full-length recombinant human PHKgamma1 at 10 uM using KKLNRTLSFAEPG as substrate after 120 mins by in presence of [gamma33P]ATP by scintillation counting method relative to control.
Assay [6] deals with Rhodopsin kinase GRK1 (Homo sapiens) (UniProt Q15835). As to the kind of experiment: Inhibition of full length recombinant human GRK1 at 10 uM using KKKKERLLDDRHDSGLDSMKDEE as substrate after 40 mins in presence of [gamma33P]ATP by scintillation counting method relative to control.
Assay [7] addresses Tyrosine-protein kinase JAK2 (Homo sapiens) (UniProt O60674). The assay can be described thus: Inhibition of recombinant human JAK2 (808 to end residues) at 10 uM using KTFCGTPEYLAPEVRREPRILSEEEQEMFRDFDYIADWC as substrate measured after 40 mins in presence of [gamm33P]ATP by scintillation counting method relative to control.
The target of assay [8] is LIM domain kinase 2 (Homo sapiens) (UniProt P53671). As to the kind of experiment: Inhibition of human LIMK2 at 10 uM by radiometric assay relative to control.
For assay [9], the target named is Epidermal growth factor receptor (Homo sapiens) (UniProt P00533). The assay can be described thus: Inhibition of recombinant human EGFR (696 to end residues) at 10 uM using poly(Glu, Tyr) as substrate measured after 40 mins in presence of [gamma33P]ATP by scintillation counting method relative to control.
For assay [10], the target named is Tyrosine-protein kinase JAK1 (Homo sapiens) (UniProt P23458). As to the kind of experiment: Inhibition of recombinant human JAK1 (866 to end residues) at 10 uM using GEEPLYWSFPAKK as substrate measured after 40 mins in presence of [gamm33P]ATP by scintillation counting method relative to control.
In assay [11] the target is Protein kinase C alpha type (Homo sapiens) (UniProt P17252). The assay can be described thus: Inhibition of full-length recombinant human PKCalpha at 10 uM using histone H1 as substrate after 40 mins by in presence of [gamma33P]ATP by scintillation counting method relative to control.
Assay [12] deals with Dual specificity mitogen-activated protein kinase kinase 2 (Homo sapiens) (UniProt P36507). As to the kind of experiment: Inhibition of recombinant full-length human MEK2 at 10 uM using MBP as substrate measured after 40 mins in presence of [gamma33P]ATP by scintillation counting method relative to control.
Assay [13] concerns the target Tyrosine-protein kinase Lck (Homo sapiens) (UniProt P06239). The assay can be described thus: Inhibition of recombinant full-length human LCK at 10 uM using KVEKIGEGTYGVVYK as substrate measured after 40 mins in presence of [gamm33P]ATP by scintillation counting method relative to control.
For assay [14], the target named is Insulin receptor (Homo sapiens) (UniProt P06213). As to the kind of experiment: Inhibition of recombinant human IR (1005 to 1310 residues) at 10 uM using KKSRGDYMTMQIG as substrate after 40 mins in presence of [gamma33P]ATP by scintillation counting method relative to control.
Assay [15] concerns the target Insulin receptor-related protein (Homo sapiens) (UniProt P14616). As to the kind of experiment: Inhibition of recombinant human IRR (943 to 1266 residues) at 10 uM using myelin basic protein as substrate measured after 40 mins in presence of [gamma33P]ATP by scintillation counting method relative to control.
For assay [16], the target named is Histone acetyltransferase p300 (Homo sapiens) (UniProt Q09472). As to the kind of experiment: Displacement of [3H]-acetyl-CoA from human P300 after 60 mins by microbeta counting method. Background: Displacement assays read how much labelled ligand stays bound in the presence of the test substance.
The target of assay [17] is Serine/threonine-protein kinase PAK 1 (Homo sapiens) (UniProt Q13153). As to the kind of experiment: Inhibition of recombinant human PAK1 (150 to end residues) at 10 uM using RRRLSFAEPG as substrate measured after 40 mins in presence of [gamma33P]ATP by scintillation counting method relative to control.
In assay [18] the target is Serine/threonine-protein kinase ULK2 (Homo sapiens) (UniProt Q8IYT8). The assay can be described thus: Inhibition of recombinant human ULK2 (1 to 306 residues) at 10 uM using casein as substrate measured after 40 mins in presence of [gamm33P]ATP by scintillation counting method relative to control.
The target in assay [19] is Ribosomal protein S6 kinase alpha-1 (Homo sapiens) (UniProt Q15418). As to the kind of experiment: Inhibition of full length recombinant human Rsk1 at 10 uM using KKKNRTLSVA as substrate after 40 mins in presence of [gamma33P]ATP by scintillation counting method relative to control.
For assay [20], the target named is Protein-tyrosine kinase 6 (Homo sapiens) (UniProt Q13882). As to the kind of experiment: Inhibition of full-length recombinant human BRK at 10 uM using poly(Glu, Tyr) 4:1 as substrate measured after 40 mins in presence of [gamma33P]ATP by scintillation counting method relative to control.
Assay [21] has as its target Calcium/calmodulin-dependent protein kinase type IV (Homo sapiens) (UniProt Q16566). As to the kind of experiment: Inhibition of full-length recombinant human Camk4 at 10 uM using calmodulin as substrate after 40 mins by in presence of [gamma33P]ATP by scintillation counting method relative to control.
Assay [22] deals with Serine/threonine-protein kinase 17A (Homo sapiens) (UniProt Q9UEE5). As to the kind of experiment: Inhibition of full-length recombinant human DRAK1 at 10 uM using KKLNRTLSFAEPG as substrate after 40 mins by in presence of [gamma33P]ATP by scintillation counting method relative to control.
Assay [23] deals with Serine/threonine-protein kinase Chk1 (Homo sapiens) (UniProt O14757). The assay can be described thus: Inhibition of recombinant full length human CHK1 at 10 uM using KKKVSRSGLYRSPSMPENLNRPR as substrate measured after 40 mins in presence of [gamma33P]ATP by scintillation counting method relative to control.
The species entered for a further assay is Homo sapiens. The assay can be described thus: Inhibition of TEAD (unknown origin) expresssed in HEK293T cells assessed as reduction in luciferase activity at 10 to 20 uM by dual-luciferase reporter gene assay. Type of assay: cell-based.

Sequence of Death-associated protein kinase 1 (Homo sapiens) (P53355 whole entry, looked up, the tested form may be a part): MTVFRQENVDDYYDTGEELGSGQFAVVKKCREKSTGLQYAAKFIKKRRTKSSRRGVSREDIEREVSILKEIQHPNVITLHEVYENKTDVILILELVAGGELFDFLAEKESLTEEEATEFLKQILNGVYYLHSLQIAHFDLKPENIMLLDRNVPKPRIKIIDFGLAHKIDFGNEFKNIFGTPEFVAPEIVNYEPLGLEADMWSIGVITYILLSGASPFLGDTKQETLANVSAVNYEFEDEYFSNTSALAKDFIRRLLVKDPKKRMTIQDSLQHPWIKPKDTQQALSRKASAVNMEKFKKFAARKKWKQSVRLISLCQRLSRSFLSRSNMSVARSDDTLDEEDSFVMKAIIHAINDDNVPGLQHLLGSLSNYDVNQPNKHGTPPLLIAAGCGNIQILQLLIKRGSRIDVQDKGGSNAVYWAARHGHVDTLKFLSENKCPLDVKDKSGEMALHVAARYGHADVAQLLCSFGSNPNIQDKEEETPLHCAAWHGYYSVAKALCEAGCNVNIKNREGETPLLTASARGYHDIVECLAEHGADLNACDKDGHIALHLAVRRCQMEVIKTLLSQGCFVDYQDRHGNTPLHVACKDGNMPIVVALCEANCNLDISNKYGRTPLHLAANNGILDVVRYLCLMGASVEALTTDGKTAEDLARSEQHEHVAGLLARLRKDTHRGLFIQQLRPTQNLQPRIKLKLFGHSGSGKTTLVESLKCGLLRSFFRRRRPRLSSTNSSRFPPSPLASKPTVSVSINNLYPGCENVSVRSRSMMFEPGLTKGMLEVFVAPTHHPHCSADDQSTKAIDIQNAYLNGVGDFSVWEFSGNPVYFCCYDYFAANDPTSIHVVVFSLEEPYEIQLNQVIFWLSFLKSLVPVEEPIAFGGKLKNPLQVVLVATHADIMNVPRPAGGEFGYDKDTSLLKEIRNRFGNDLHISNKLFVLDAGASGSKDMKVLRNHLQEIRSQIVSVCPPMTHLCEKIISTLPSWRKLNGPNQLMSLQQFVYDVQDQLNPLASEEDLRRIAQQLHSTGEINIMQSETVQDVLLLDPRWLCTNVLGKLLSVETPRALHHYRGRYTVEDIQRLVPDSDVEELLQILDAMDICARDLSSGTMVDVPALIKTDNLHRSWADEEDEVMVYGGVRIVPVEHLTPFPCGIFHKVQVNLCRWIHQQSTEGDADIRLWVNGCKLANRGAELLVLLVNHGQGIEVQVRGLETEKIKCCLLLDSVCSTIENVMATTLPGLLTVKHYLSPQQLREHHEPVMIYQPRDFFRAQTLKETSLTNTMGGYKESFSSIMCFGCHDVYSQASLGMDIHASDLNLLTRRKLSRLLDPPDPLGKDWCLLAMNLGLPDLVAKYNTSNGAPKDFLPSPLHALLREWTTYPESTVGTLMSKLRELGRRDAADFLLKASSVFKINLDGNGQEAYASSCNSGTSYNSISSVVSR
Sequence of Transcriptional enhancer factor TEF-3 (Q15561 whole entry, the tested form may be a part): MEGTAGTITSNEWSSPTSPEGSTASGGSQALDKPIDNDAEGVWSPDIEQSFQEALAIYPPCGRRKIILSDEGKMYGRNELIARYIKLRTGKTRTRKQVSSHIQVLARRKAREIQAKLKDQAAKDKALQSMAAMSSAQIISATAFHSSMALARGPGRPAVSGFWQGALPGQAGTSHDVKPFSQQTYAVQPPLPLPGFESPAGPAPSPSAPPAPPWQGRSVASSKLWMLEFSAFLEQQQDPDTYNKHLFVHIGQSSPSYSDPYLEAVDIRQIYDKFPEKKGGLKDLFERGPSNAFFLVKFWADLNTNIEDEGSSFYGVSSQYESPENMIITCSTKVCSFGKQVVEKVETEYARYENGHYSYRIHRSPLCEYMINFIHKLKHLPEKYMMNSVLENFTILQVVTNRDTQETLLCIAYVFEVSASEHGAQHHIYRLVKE
Sequence of Serine/threonine-protein kinase 17A (Homo sapiens) (Q9UEE5 whole entry): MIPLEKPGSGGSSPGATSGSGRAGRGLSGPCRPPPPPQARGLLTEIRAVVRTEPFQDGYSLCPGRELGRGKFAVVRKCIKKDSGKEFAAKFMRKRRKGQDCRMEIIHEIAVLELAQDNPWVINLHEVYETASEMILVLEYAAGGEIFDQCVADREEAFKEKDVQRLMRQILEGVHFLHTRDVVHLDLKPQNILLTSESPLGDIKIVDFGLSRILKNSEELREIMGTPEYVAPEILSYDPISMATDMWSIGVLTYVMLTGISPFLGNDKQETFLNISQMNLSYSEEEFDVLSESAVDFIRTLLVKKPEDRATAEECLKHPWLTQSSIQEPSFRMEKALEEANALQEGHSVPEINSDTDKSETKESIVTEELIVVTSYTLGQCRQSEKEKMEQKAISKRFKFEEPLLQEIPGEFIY
Sequence of Ribosomal protein S6 kinase alpha-1 (Homo sapiens) (Q15418 whole entry): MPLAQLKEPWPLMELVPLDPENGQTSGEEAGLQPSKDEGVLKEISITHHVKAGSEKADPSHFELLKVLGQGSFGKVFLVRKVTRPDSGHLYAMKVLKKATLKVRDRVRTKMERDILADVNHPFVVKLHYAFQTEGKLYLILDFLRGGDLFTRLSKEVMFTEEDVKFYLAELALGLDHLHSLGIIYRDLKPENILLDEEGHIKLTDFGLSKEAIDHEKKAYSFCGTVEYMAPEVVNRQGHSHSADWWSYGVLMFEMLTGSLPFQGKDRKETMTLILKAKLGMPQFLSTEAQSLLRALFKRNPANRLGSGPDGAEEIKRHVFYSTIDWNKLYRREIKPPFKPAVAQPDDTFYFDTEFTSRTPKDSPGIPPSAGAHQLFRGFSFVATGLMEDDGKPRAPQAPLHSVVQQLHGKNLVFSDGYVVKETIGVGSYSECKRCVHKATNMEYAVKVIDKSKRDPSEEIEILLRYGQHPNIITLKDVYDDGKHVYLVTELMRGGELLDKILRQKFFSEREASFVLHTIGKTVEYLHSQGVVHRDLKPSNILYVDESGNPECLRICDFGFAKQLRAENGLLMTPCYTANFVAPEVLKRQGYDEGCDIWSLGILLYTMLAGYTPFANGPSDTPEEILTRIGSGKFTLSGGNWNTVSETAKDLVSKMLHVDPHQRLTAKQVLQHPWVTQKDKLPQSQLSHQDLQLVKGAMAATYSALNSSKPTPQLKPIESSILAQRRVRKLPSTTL
Sequence of Tyrosine-protein kinase JAK1 (Homo sapiens) (P23458 whole entry): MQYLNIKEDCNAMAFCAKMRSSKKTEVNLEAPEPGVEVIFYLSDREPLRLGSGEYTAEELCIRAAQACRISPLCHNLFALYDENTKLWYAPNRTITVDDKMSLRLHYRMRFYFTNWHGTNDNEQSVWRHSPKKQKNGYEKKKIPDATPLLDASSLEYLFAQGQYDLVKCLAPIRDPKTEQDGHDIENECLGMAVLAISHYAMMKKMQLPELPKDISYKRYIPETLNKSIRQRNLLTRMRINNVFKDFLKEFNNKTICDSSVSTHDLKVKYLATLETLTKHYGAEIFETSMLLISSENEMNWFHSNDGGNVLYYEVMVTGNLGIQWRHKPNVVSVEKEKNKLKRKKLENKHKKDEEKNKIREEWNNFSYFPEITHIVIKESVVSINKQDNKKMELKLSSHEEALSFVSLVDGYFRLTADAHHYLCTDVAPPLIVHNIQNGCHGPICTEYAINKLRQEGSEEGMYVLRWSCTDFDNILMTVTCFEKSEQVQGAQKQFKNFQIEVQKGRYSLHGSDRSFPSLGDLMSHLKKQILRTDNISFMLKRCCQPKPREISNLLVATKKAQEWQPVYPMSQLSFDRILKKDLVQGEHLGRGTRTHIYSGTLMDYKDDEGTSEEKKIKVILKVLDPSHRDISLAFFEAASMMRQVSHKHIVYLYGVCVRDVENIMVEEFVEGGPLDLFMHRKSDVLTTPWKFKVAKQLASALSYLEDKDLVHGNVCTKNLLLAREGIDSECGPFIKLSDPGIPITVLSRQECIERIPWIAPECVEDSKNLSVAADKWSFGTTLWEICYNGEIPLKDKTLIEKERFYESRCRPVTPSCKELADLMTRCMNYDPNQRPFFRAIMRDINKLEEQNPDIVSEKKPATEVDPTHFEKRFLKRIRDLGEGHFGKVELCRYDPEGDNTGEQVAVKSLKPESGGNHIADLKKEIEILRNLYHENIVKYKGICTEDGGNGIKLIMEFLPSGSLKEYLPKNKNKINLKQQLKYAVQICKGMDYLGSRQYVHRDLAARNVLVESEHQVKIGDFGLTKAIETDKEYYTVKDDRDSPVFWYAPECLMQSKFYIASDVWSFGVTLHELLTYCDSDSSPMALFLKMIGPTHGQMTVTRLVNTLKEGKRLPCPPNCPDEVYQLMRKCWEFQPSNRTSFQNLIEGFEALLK

As for `C=CS(=O)(=O)Nc1ccc(Cc2ccc3ccccc3c2)cc1`, the inhibition in assay [1] is 8%; in assay [2], 3%; in assay [3] it was -5%; in [5], -3%; in [6] it was 7%; in assay [7], 6%. Further, the inhibition in [8] is -8%; in assay [9], 13%; in assay [10], 7%; in assay [11], 3%; in [12], -9%; in assay [13] it was 6%. For the same compound, the inhibition was -10% in assay [14]; 13% in [15]; -3% in assay [16]; 5% in assay [17]; 2% in assay [18]; 22% in [19]. Moreover, the inhibition was -6% in assay [20], 2% in assay [21], -1% in assay [22] and 5% in assay [23]. Besides, the inhibition entry (in assay [4]; in the assay filed under Homo sapiens) was “Active” in each case.
